Experimental data as given in PubChem BioAssay (NCI).
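These data come from cells grown in 96-well plates and exposed to compound for 48 hours at five concentrations. GI50 is the concentration that inhibits growth by half. TGI marks complete inhibition of growth.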

Legend:
Test in all cases: growth of human tumour cells (NCI), 48 h
786-0 renal = tested on: 786-0 renal
A498 renal = tested on: A498 renal
A549 NSCLC = tested on: A549 NSCLC
ACHN renal = tested on: ACHN renal
CAKI-1 renal = tested on: CAKI-1 renal
CCRF-CEM leukemia = tested on: CCRF-CEM leukemia
COLO 205 colon = tested on: COLO 205 colon
DLD-1 colon = tested on: DLD-1 colon
DMS 114 small cell lung = tested on: DMS 114 small cell lung
DMS 273 small cell lung = tested on: DMS 273 small cell lung
EKVX NSCLC = tested on: EKVX NSCLC
HCC-2998 colon = tested on: HCC-2998 colon
HCT-116 colon = tested on: HCT-116 colon
HCT-15 colon = tested on: HCT-15 colon
HL-60(TB) leukemia = tested on: HL-60(TB) leukemia
HOP-18 NSCLC = tested on: HOP-18 NSCLC
HOP-62 NSCLC = tested on: HOP-62 NSCLC
HOP-92 NSCLC = tested on: HOP-92 NSCLC
HT29 colon = tested on: HT29 colon
IGROV1 ovarian = tested on: IGROV1 ovarian
K-562 leukemia = tested on: K-562 leukemia
KM12 colon = tested on: KM12 colon
KM20L2 colon = tested on: KM20L2 colon
LOX IMVI melanoma = tested on: LOX IMVI melanoma
LXFL 529 NSCLC = tested on: LXFL 529 NSCLC
M14 melanoma = tested on: M14 melanoma
M19-MEL melanoma = tested on: M19-MEL melanoma
MALME-3M melanoma = tested on: MALME-3M melanoma
MOLT-4 leukemia = tested on: MOLT-4 leukemia
NCI-H226 lung = tested on: NCI-H226 lung
NCI-H23 lung = tested on: NCI-H23 lung
NCI-H460 lung = tested on: NCI-H460 lung
NCI-H522 lung = tested on: NCI-H522 lung
OVCAR-3 ovarian = tested on: OVCAR-3 ovarian
OVCAR-4 ovarian = tested on: OVCAR-4 ovarian
OVCAR-5 ovarian = tested on: OVCAR-5 ovarian
OVCAR-8 ovarian = tested on: OVCAR-8 ovarian
RPMI-8226 leukemia = tested on: RPMI-8226 leukemia
RXF 393 renal = tested on: RXF 393 renal
RXF-631 renal = tested on: RXF-631 renal
SF-268 CNS = tested on: SF-268 CNS
SF-295 CNS = tested on: SF-295 CNS
SF-539 CNS = tested on: SF-539 CNS
SK-MEL-2 melanoma = tested on: SK-MEL-2 melanoma
SK-MEL-28 melanoma = tested on: SK-MEL-28 melanoma
SK-MEL-5 melanoma = tested on: SK-MEL-5 melanoma
SK-OV-3 ovarian = tested on: SK-OV-3 ovarian
SN12C renal = tested on: SN12C renal
SNB-19 CNS = tested on: SNB-19 CNS
SNB-75 CNS = tested on: SNB-75 CNS
SNB-78 CNS = tested on: SNB-78 CNS
SR leukemia = tested on: SR leukemia
TK-10 renal = tested on: TK-10 renal
U251 CNS = tested on: U251 CNS
UACC-257 melanoma = tested on: UACC-257 melanoma
UACC-62 melanoma = tested on: UACC-62 melanoma
UO-31 renal = tested on: UO-31 renal
BT-549 breast = tested on: BT-549 breast
DU-145 prostate = tested on: DU-145 prostate
HS 578T breast = tested on: HS 578T breast
MCF7 breast = tested on: MCF7 breast
MDA-MB-231 breast = tested on: MDA-MB-231 breast
MDA-MB-435 = tested on: MDA-MB-435
NCI/ADR-RES ovarian = tested on: NCI/ADR-RES ovarian
PC-3 prostate = tested on: PC-3 prostate
SW-620 colon = tested on: SW-620 colon
T-47D breast = tested on: T-47D breast
XF 498 CNS = tested on: XF 498 CNS

## CCOC(OC1=C(C#N)CCC1)C(C)[Se]c1ccccc1 (centres undefined)
786-0 renal
  TGI: 27.8 µM
A498 renal
  TGI: > 100 µM
A549 NSCLC
  TGI: > 100 µM
ACHN renal
  TGI: 96.2 µM
CAKI-1 renal
  TGI: > 100 µM
CCRF-CEM leukemia
  TGI: > 100 µM
COLO 205 colon
  TGI: > 100 µM
DLD-1 colon
  TGI: 87.6 µM
DMS 114 small cell lung
  TGI: 14.2 µM
DMS 273 small cell lung
  TGI: 29.7 µM
EKVX NSCLC
  TGI: 82.6 µM
HCC-2998 colon
  TGI: > 100 µM
HCT-116 colon
  TGI: 42.4 µM
HCT-15 colon
  TGI: 35.2 µM
HL-60(TB) leukemia
  TGI: 73.8 µM
HOP-18 NSCLC
  TGI: 55.3 µM
HOP-62 NSCLC
  TGI: > 100 µM
HOP-92 NSCLC
  TGI: 49.3 µM
HT29 colon
  TGI: > 100 µM
IGROV1 ovarian
  TGI: 68.8 µM
K-562 leukemia
  TGI: > 100 µM
KM12 colon
  TGI: > 100 µM
KM20L2 colon
  TGI: > 100 µM
LOX IMVI melanoma
  TGI: 22.9 µM
LXFL 529 NSCLC
  TGI: 46 µM
M14 melanoma
  TGI: 33.4 µM
M19-MEL melanoma
  TGI: 30.9 µM
MALME-3M melanoma
  TGI: 51.9 µM
MOLT-4 leukemia
  TGI: 43.7 µM
NCI-H226 lung
  TGI: 51.7 µM
NCI-H23 lung
  TGI: 26.6 µM
NCI-H460 lung
  TGI: > 100 µM
NCI-H522 lung
  TGI: 26.7 µM
OVCAR-3 ovarian
  TGI: 42.5 µM
OVCAR-4 ovarian
  TGI: 30.5 µM
OVCAR-5 ovarian
  TGI: > 100 µM
OVCAR-8 ovarian
  TGI: 35.9 µM
RPMI-8226 leukemia
  TGI: 53.1 µM
RXF 393 renal
  TGI: 34.7 µM
RXF-631 renal
  TGI: 26.3 µM
SF-268 CNS
  TGI: 46.6 µM
SF-295 CNS
  TGI: 71.6 µM
SF-539 CNS
  TGI: 41 µM
SK-MEL-2 melanoma
  TGI: > 100 µM
SK-MEL-28 melanoma
  TGI: 96.9 µM
SK-MEL-5 melanoma
  TGI: 34 µM
SK-OV-3 ovarian
  TGI: > 100 µM
SN12C renal
  TGI: 35.8 µM
SNB-19 CNS
  TGI: > 100 µM
SNB-75 CNS
  TGI: 77.9 µM
SNB-78 CNS
  TGI: > 100 µM
SR leukemia
  TGI: 34.8 µM
TK-10 renal
  TGI: > 100 µM
U251 CNS
  TGI: 21.5 µM
UACC-257 melanoma
  TGI: > 100 µM
UACC-62 melanoma
  TGI: 43.9 µM
UO-31 renal
  TGI: 67.4 µM

## CN(C)CCONC(=O)C12CC3CC(CC(C3)C1)C2
786-0 renal
  TGI: > 100 µM
A498 renal
  TGI: > 100 µM
A549 NSCLC
  TGI: > 100 µM
ACHN renal
  TGI: > 100 µM
BT-549 breast
  GI50: > 100 µM
  TGI: > 100 µM
CAKI-1 renal
  TGI: > 100 µM
CCRF-CEM leukemia
  TGI: > 100 µM
COLO 205 colon
  TGI: > 100 µM
DLD-1 colon
  TGI: > 100 µM
DMS 114 small cell lung
  TGI: > 100 µM
DU-145 prostate
  GI50: > 100 µM
  TGI: > 100 µM
EKVX NSCLC
  TGI: > 100 µM
HCC-2998 colon
  GI50: > 100 µM
  TGI: > 100 µM
HCT-116 colon
  TGI: > 100 µM
HCT-15 colon
  TGI: > 100 µM
HL-60(TB) leukemia
  TGI: > 100 µM
HOP-62 NSCLC
  TGI: > 100 µM
HOP-92 NSCLC
  TGI: > 100 µM
HS 578T breast
  GI50: > 100 µM
  TGI: > 100 µM
HT29 colon
  TGI: > 100 µM
IGROV1 ovarian
  TGI: > 100 µM
K-562 leukemia
  TGI: > 100 µM
KM12 colon
  TGI: > 100 µM
KM20L2 colon
  TGI: > 100 µM
LOX IMVI melanoma
  TGI: > 100 µM
LXFL 529 NSCLC
  TGI: > 100 µM
M14 melanoma
  TGI: > 100 µM
M19-MEL melanoma
  TGI: > 100 µM
MCF7 breast
  GI50: > 100 µM
  TGI: > 100 µM
MDA-MB-231 breast
  GI50: > 100 µM
  TGI: > 100 µM
MDA-MB-435
  GI50: > 100 µM
  TGI: > 100 µM
MOLT-4 leukemia
  TGI: > 100 µM
NCI-H226 lung
  TGI: > 100 µM
NCI-H23 lung
  TGI: > 100 µM
NCI-H460 lung
  TGI: > 100 µM
NCI-H522 lung
  TGI: > 100 µM
NCI/ADR-RES ovarian
  GI50: > 100 µM
  TGI: > 100 µM
OVCAR-3 ovarian
  TGI: > 100 µM
OVCAR-4 ovarian
  GI50: > 100 µM
  TGI: > 100 µM
OVCAR-5 ovarian
  TGI: > 100 µM
OVCAR-8 ovarian
  TGI: > 100 µM
PC-3 prostate
  GI50: > 100 µM
  TGI: > 100 µM
RPMI-8226 leukemia
  TGI: > 100 µM
RXF 393 renal
  TGI: > 100 µM
RXF-631 renal
  TGI: > 100 µM
SF-268 CNS
  TGI: > 100 µM
SF-295 CNS
  TGI: > 100 µM
SF-539 CNS
  TGI: > 100 µM
SK-MEL-2 melanoma
  TGI: > 100 µM
SK-MEL-28 melanoma
  TGI: > 100 µM
SK-MEL-5 melanoma
  TGI: > 100 µM
SK-OV-3 ovarian
  TGI: > 100 µM
SN12C renal
  TGI: > 100 µM
SNB-19 CNS
  TGI: > 100 µM
SNB-75 CNS
  TGI: > 100 µM
SNB-78 CNS
  TGI: 69.2 µM
SR leukemia
  TGI: > 100 µM
SW-620 colon
  GI50: > 100 µM
  TGI: > 100 µM
T-47D breast
  GI50: > 100 µM
  TGI: > 100 µM
TK-10 renal
  TGI: > 100 µM
U251 CNS
  TGI: > 100 µM
UACC-257 melanoma
  TGI: > 100 µM
UACC-62 melanoma
  TGI: > 100 µM
UO-31 renal
  TGI: > 100 µM
XF 498 CNS
  TGI: > 100 µM
